From patent publication US8110654B2, “T cell epitope peptides of ovarian cancer anti-idiotypic antibody 6B11 and use thereof” (Peking University People;s Hospital, priority 2006, dated 2012)

How the values were obtained:
[1] = tested on: T2 cells loaded with corresponding peptides; assay: 51Cr release assay, peptide-CTLs against T2 cells loaded with peptide; assay type: cell-based; details: for killing of T2 cells loaded with the peptide by peptide-CTLs: CTLs stimulated three periods, 4 hours, effector/target 40:1 to 5:1; for killing of peptide-stimulated T2 cells after MHC class I molecule blocking: anti-human MHC class I antibodies 1:20 dilution
Description: The freeze-stored autologous lymphocytes were stimulated by DCs loaded with the peptides and KLH, to obtain peptide-specific CTLs (peptide-CTLs). One period consists of 7 days. On Day 3 of every period, 10 U/ml rh IL-2 was supplemented. Finally, peptide-CTLs were obtained after a 3-period stimulation.
6B11-CTLs stimulated for one period were harvested and used as reacting cells in cell proliferation assay, ELISA cytokine assay and IFN-γ ELISPOT assay. 6B11-CTLs and peptide-CTLs stimulated for 3 periods were harvested for use in ^51Cr release assay as effector cells.
6B11-CTLs and peptide-CTLs stimulated for three periods were used as effector cells. T2 cells, HOC1A cells and HLE cells loaded with corresponding peptides were used as target cells. Standard ^51Cr release assay was carried out for 4 hours. Target cells (1×10^6 cells) were placed into 0.5 ml RPMI 1640 culture medium (containing 5% fetal bovine serum). 100 μCi Na2^51CrO4 was added. The labeling reaction was allowed to continue overnight at 37° C. Then the cells were washed by cold RPMI 1640 culture medium (containing 5% fetal bovine serum) for three times to terminate the labeling reaction. Target cells (5×10^3 cells) were placed into 100 μl culture medium and then mixed with an equal volume of effector cells in a 96-well plate. The ratio of effector/target was set as 40:1, 20:1, 10:1 and 5:1. Spontaneous release wells contained target cells and the culture medium, while the maximal release wells contained target cells and corresponding culture medium containing 1% Triton X-100. The plates were gently spun using a plate centrifuge for 2 minutes and then co-incubated at 37° C. under 5% CO2 for 4 hours. The plates were gently spun again. 100 μl of supernatant per well was transferred to a counting tube and labeled as appropriate. The cpm values were determined by a γ counter. All assays were performed in duplicate. The ratio of cpm values of the spontaneous release well to the maximal release well was <20%. Killing ratio (%)=[(mean cpm value of the experimental wells−mean cpm value of the spontaneous release wells)/(mean cpm value of the maximal release wells−mean cpm value of the spontaneous release wells)]×100
For further analyzing the above-mentioned killing effect, the target cells were blocked by applying anti-human MHC class I antibodies, for evaluating the effect of CTL epitope peptides. Firstly, the optimal concentration of MHC class I antibodies was determined to be 1:20 dilution (FIG. 9). […] The killing effect were not disturbed by MHC class I antibodies, i.e., unrelated to the effect of CD8 T cells. […] Its killing effect was disturbed by MHC class I antibodies, which was mainly mediated by CD8 T cells (FIG. 10). […] The former was unrelated to CD8 T cells whereas the latter was mediated by CD8 T cells.

CD4 T cells = assay: BrdU cell proliferation assay after magnetic bead sorting of CD4 T cells; assay type: cell-based, human; details: reacting cells sorted for CD4 T cells by magnetic beads
Procedure: All the CDR peptides of anti-idiotype antibody 6B11 (6 peptides) were synthesized artificially. The peptides were screened for Th epitope peptides by cell proliferation assay. Anti-idiotype antibody 6B11-CTLs stimulated for one period were used as reacting cells. DCs loaded with anti-idiotype antibodies and peptides respectively were used as stimulating cells. The reacting cells and the stimulating cells (in the ratio of 10:1) were co-incubated at 37° C. under 5% CO2 for 120 hours and then subject to BrdU ELISA cell proliferation assay. Each well contained 100 μl AIM-V culture medium and 1×10^5 anti-idiotype antibody 6B11-CTLs. Within the last 2 hours during stimulation, 10 μl BrdU labeling solution was added into each well and the fluid in the wells was removed. The cells were dried at 60° C. for 1 hour. 200 μl of FixDenat solution was added into each well. The reaction continued for 30 minutes at 37° C. for fixing DNA in the lymphocytes. Finally, 100 μl BrdU monoclonal antibody was added into each well for 90 minutes. The absorption value at 450 nm was read by an automatic microplate reader after substrate chromogenic reaction for detecting the proliferation of the cells. The group of DCs without loading and the group of phytohaemagglutinin (PHA) were used as negative and positive control respectively. […] Other peptides could not stimulate the proliferation of the reacting cells.
For further analyzing the proliferation of the cells, stimulating cells were blocked by anti-human MHC class II antibodies, for evaluating the effect of Th epitope peptides. Firstly, the optimal application concentration of MHC class II antibodies was determined by experiments to be 1:20 dilution (FIG. 3). […] Other peptides could not trigger cell proliferation, no matter whether MHC class II antibodies were applied or not (FIG. 4). […] The reacting cells were subject to magnetic bead sorting of CD4 T cells.

HOC1A cells = assay: Cytokine ELISA of supernatant of CTLs co-incubated with HOC1A cells; assay type: cell-based; details: CTL:HOC1A 40:1, 48 hours, double-antibody-sandwich ELISA
Procedure: 6B11-CTLs, VH CDR3-CTLs and VL CDR3-CTLs were mixed with target HOC1A cells in the ratio of 40:1 respectively and co-incubated at 37° C. under 5% CO2 for 48 hours. The supernatant was harvested, and the contents of IL-2, IFN-γ and IL-4 determined by double-antibody-sandwich ELISA. […] VH CDR3 peptide- and VL CDR3 peptide-specific CTLs could also secrete high levels of IL-2 and IFN-γ while the secretion of IL-4 was in a low level, which was in a similar trend as that of the immune response induced by anti-idiotype antibody 6B11. This indicated from a different perspective that VH CDR3 peptide and VL CDR3 peptide were involved in the induction of T cell immune response derived from anti-idiotype antibody 6B11 (FIG. 13).

K562 cells = assay: 51Cr release assay, specific CTLs against K562 cells; assay type: cell-based; details: non-specific killing

Sequence	killing of T2 cells loaded with the peptide by peptide-CTLs [1]	killing of peptide-stimulated T2 cells after MHC class I molecule blocking [1]	proliferation of sorted CD4 T cells (CD4 T cells)	IFN-γ secretion by CTLs (HOC1A cells)	IL-2 secretion by CTLs (HOC1A cells)	IL-4 secretion by CTLs (HOC1A cells)	killing of K562 cells by specific CTLs (K562 cells)
SQSTHFPYT (VL CDR3 region peptide)	could also kill	significantly inhibited	could not trigger the proliferation	high levels	high levels	low level	could not kill
IALITTKIAWYFDV (VH CDR3 region peptide) [VH CDR3 peptide]	could kill	could still kill	could trigger the proliferation	high levels	high levels	low level	could kill
